# Test results from patent US8362249B2, “CXCR3 receptor antagonists” (Boehringer Ingelheim International GmbH, priority 2009, dated 2013).
# Target: CXCR3 (Macaca fascicularis, UniProt A0A2K5UV19)
# Experiment: functional cellular assay measuring calcium flux in CXCR3 transfected cells (block of CXCR3/IP-10 interaction)
# Assay type: cell-based
# Conditions: IP-10 induced intracellular calcium flux; Cyno-CHO cells stably expressing recombinant CXCR3 and G-alpha-16
# Description: Compounds are assessed for the ability to block the interaction of CXCR3 and IP-10 in a functional cellular assay measuring calcium flux in CXCR3 transfected cells.
# Cyno-CHO cells, stably expressing recombinant CXCR3 and G-alpha-16 are grown in F12 medium (Mediatech #45000-360) supplemented with 10% (V/V) FBS (Mediatech #35-01500), 1% Geneticin (Invitrogen #10131-027) and 0.2% Zeocin (Invitrogen #R250-05). The cells are spun down and re-suspended in growth media to a concentration of 4.8 E5 cells/mL. 25 microL of cell suspension is added to each well of a BD-384-well TC treated plate, providing 12,000 cells/well. The plate is incubated at 37° C./5% CO2 overnight. On the day of the assay, the plates are removed, the media is flicked out and 25 microL of Ca-4 dye in assay buffer (HBSS, 10 mM HEPES ph 7.4), containing 2 mM probenacid is added to each well. The cell assay plates are then incubated at 37° C./5% CO2 for one hour.
# Test compounds are dissolved in DMSO and diluted to 1.045 mM in DMSO. Just prior to assay, 2.75 microL of appropriately diluted test compound are added to each well of a 384 well plate containing 45 microL of HBSS buffer. After mixing, 5 microL of diluted compound are added to each well of the cell assay plate for a final assay concentration of 10 microM. The plate is incubated at room temperature for 15 min. 10 microL of IP-10 stock solution in HBSS (4× EC80 concentration) are added to each well of the cell assay plate except those cells reserved as blank wells containing buffer only. Intracellular calcium flux is recorded on the HAMAMTSU FDSS6000, using excitation at 480 nm and emission at 540 nm. Data are analyzed using Activity Base software.
# In general, the preferred potency range (IC50) of compounds in the above assay is between 1 nM to 3 μM, and the most preferred potency range is 1 nM to 20 nM.
# CXCR3, sequence (A0A2K5UV19 entry or part of it): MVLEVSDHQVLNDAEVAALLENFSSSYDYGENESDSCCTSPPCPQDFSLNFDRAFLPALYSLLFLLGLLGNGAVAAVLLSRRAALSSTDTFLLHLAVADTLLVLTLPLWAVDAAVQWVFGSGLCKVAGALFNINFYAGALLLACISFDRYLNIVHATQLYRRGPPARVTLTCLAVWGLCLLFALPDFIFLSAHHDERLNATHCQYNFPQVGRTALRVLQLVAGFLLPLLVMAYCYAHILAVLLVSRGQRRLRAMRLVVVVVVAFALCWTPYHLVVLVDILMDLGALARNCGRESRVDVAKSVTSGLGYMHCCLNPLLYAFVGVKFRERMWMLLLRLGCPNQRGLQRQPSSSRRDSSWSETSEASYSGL
row,SMILES,IC50 [nM]
1,"Cc1cc(C)n(CC(=O)N2CCN(c3ccccc3C(=O)Nc3ccc4oc(C)nc4c3)CC2)n1 [2-{4-[2-(3,5-Dimethyl-pyrazol-1-yl)-acetyl]-piperazin-1-yl}-N-(2-methyl-benzooxazol-5-yl)-benzamide]",17.5
2,"Cc1cc(C)n(CC(=O)N2CCN(c3ccccc3C(=O)Nc3ccc4nc(C)sc4c3)CC2)n1 [2-{4-[2-(3,5-Dimethyl-pyrazol-1-yl)-acetyl]-piperazin-1-yl}-N-(2-methyl-benzothiazol-6-yl)-benzamide]",13
3,"Cc1cc(NC(=O)c2ccccc2N2CCN(C(=O)Cn3nc(C)cc3C)CC2)ccn1 [2-{4-[2-(3,5-Dimethyl-pyrazol-1-yl)-acetyl]-piperazin-1-yl}-N-(2-methyl-pyridin-4-yl)-benzamide]",12.5
4,"Cc1cc(C)n(CC(=O)N2CCN(c3ccccc3C(=O)Nc3ccnc(C(F)(F)F)c3)CC2)n1 [2-{4-[2-(3,5-Dimethyl-pyrazol-1-yl)-acetyl]-piperazin-1-yl}-N-(2-trifluoromethyl-pyridin-4-yl)-benzamide]",12
5,"Cc1cc(C)n(CC(=O)N2CCN(c3ccccc3C(=O)Nc3cccc(S(=O)(=O)N(C)C)c3)CC2)n1 [2-{4-[2-(3,5-Dimethyl-pyrazol-1-yl)-acetyl]-piperazin-1-yl}-N-(3-dimethylsulfamoyl-phenyl)-benzamide]",17
6,"Cc1cc(C)n(CC(=O)N2CCN(c3ccccc3C(=O)Nc3ccncc3F)CC2)n1 [2-{4-[2-(3,5-Dimethyl-pyrazol-1-yl)-acetyl]-piperazin-1-yl}-N-(3-fluoro-pyridin-4-yl)-benzamide]",19.5
7,"Cc1cc(C)n(CC(=O)N2CCN(c3ccccc3C(=O)Nc3cccc(S(C)(=O)=O)c3)CC2)n1 [2-{4-[2-(3,5-Dimethyl-pyrazol-1-yl)-acetyl]-piperazin-1-yl}-N-(3-methanesulfonyl-phenyl)-benzamide]",19
8,"Cc1cc(C)n(CC(=O)N2CCN(c3ccccc3C(=O)Nc3nc4c(s3)CCCC4)CC2)n1 [2-{4-[2-(3,5-Dimethyl-pyrazol-1-yl)-acetyl]-piperazin-1-yl}-N-(4,5,6,7-tetrahydro-benzothiazol-2-yl)-benzamide]",12
9,"Cc1csc(NC(=O)c2ccccc2N2CCN(C(=O)Cn3nc(C)cc3C)CC2)n1 [2-{4-[2-(3,5-Dimethyl-pyrazol-1-yl)-acetyl]-piperazin-1-yl}-N-(4-methyl-thiazol-2-yl)-benzamide]",12
10,"Cc1cc(C)n(CC(=O)N2CCN(c3ccccc3C(=O)Nc3nc(-c4cccnc4)cs3)CC2)n1 [2-{4-[2-(3,5-Dimethyl-pyrazol-1-yl)-acetyl]-piperazin-1-yl}-N-(4-pyridin-3-yl-thiazol-2-yl)-benzamide]",20
11,"Cc1cc(C)n(CC(=O)N2CCN(c3ccccc3C(=O)Nc3nc(-c4ccncc4)cs3)CC2)n1 [2-{4-[2-(3,5-Dimethyl-pyrazol-1-yl)-acetyl]-piperazin-1-yl}-N-(4-pyridin-4-yl-thiazol-2-yl)-benzamide]",13.5
12,"Cc1cc(C)n(CC(=O)N2CCN(c3ccccc3C(=O)Nc3nc(C(F)(F)F)cs3)CC2)n1 [2-{4-[2-(3,5-Dimethyl-pyrazol-1-yl)-acetyl]-piperazin-1-yl}-N-(4-trifluoromethyl-thiazol-2-yl)-benzamide]",18
13,"Cc1cc(C)n(CC(=O)N2CCN(c3ccccc3C(=O)Nc3cnc(C)c(F)c3)CC2)n1 [2-{4-[2-(3,5-Dimethyl-pyrazol-1-yl)-acetyl]-piperazin-1-yl}-N-(5-fluoro-6-methyl-pyridin-3-yl)-benzamide]",14
14,"Cc1cc(C)n(CC(=O)N2CCN(c3ccccc3C(=O)Nc3cncc(O)c3)CC2)n1 [2-{4-[2-(3,5-Dimethyl-pyrazol-1-yl)-acetyl]-piperazin-1-yl}-N-(5-hydroxy-pyridin-3-yl)-benzamide]",12.5

# The next compounds have a lower IC50 than those just listed; values first:
row,IC50 [nM],SMILES
1,11.5,"Cc1cc(C)n(CC(=O)N2CCN(c3ccccc3C(=O)Nc3cnc4c(cnn4C(C)C)c3)CC2)n1 [2-{4-[2-(3,5-Dimethyl-pyrazol-1-yl)-acetyl]-piperazin-1-yl}-N-(1-isopropyl-1H-pyrazolo[3,4-b]pyridin-5-yl)-benzamide]"
2,11.5,"Cc1cc(C)n(CC(=O)N2CCN(c3ccccc3C(=O)Nc3nc(-c4ccccn4)cs3)CC2)n1 [2-{4-[2-(3,5-Dimethyl-pyrazol-1-yl)-acetyl]-piperazin-1-yl}-N-(4-pyridin-2-yl-thiazol-2-yl)-benzamide]"
3,10.8,"Cc1cc(C)n(CC(=O)N2CCN(c3ccccc3C(=O)Nc3cncc(F)c3)CC2)n1 [2-{4-[2-(3,5-Dimethyl-pyrazol-1-yl)-acetyl]-piperazin-1-yl}-N-(5-fluoro-pyridin-3-yl)-benzamide]"
4,10.5,"Cc1cc(C)n(CC(=O)N2CCN(c3ccccc3C(=O)Nc3cnc(-c4ccccc4)nc3)CC2)n1 [2-{4-[2-(3,5-Dimethyl-pyrazol-1-yl)-acetyl]-piperazin-1-yl}-N-(2-phenyl-pyrimidin-5-yl)-benzamide]"
5,9.8,"COc1ccc2nc(NC(=O)c3ccccc3N3CCN(C(=O)Cn4nc(C)cc4C)CC3)sc2c1 [2-{4-[2-(3,5-Dimethyl-pyrazol-1-yl)-acetyl]-piperazin-1-yl}-N-(6-methoxy-benzothiazol-2-yl)-benzamide]"
6,9.7,"Cc1cc(C)n(CC(=O)N2CCN(c3ccccc3C(=O)Nc3nc4c(s3)CN(C)CC4)CC2)n1 [2-{4-[2-(3,5-Dimethyl-pyrazol-1-yl)-acetyl]-piperazin-1-yl}-N-(5-methyl-4,5,6,7-tetrahydro-thiazolo[5,4-c]pyridin-2-yl)-benzamide]"
7,8.8,"Cc1cc(C)n(CC(=O)N2CCN(c3ccccc3C(=O)Nc3cc(-c4ccccc4)no3)CC2)n1 [2-{4-[2-(3,5-Dimethyl-pyrazol-1-yl)-acetyl]-piperazin-1-yl}-N-(3-phenyl-isoxazol-5-yl)-benzamide]"
8,8.8,"Cc1cc(C)n(CC(=O)N2CCN(c3ccccc3C(=O)Nc3ccc(S(C)(=O)=O)cc3)CC2)n1 [2-{4-[2-(3,5-Dimethyl-pyrazol-1-yl)-acetyl]-piperazin-1-yl}-N-(4-methanesulfonyl-phenyl)-benzamide]"
9,8.5,"COc1cc(NC(=O)c2ccccc2N2CCN(C(=O)Cn3nc(C)cc3C)CC2)ccn1 [2-{4-[2-(3,5-Dimethyl-pyrazol-1-yl)-acetyl]-piperazin-1-yl}-N-(2-methoxy-pyridin-4-yl)-benzamide]"
10,8,"Cc1cc(C)n(CC(=O)N2CCN(c3ccccc3C(=O)Nc3cccc(C(F)(F)F)c3)CC2)n1 [2-{4-[2-(3,5-Dimethyl-pyrazol-1-yl)-acetyl]-piperazin-1-yl}-N-(3-trifluoromethyl-phenyl)-benzamide]"
11,7.3,"Cc1cc(C)n(CC(=O)N2CCN(c3ccccc3C(=O)Nc3ncc(C)s3)CC2)n1 [2-{4-[2-(3,5-Dimethyl-pyrazol-1-yl)-acetyl]-piperazin-1-yl}-N-(5-methyl-thiazol-2-yl)-benzamide]"
12,6.6,"Cc1cc(C)n(CC(=O)N2CCN(c3ccccc3C(=O)Nc3nc4ccc(S(C)(=O)=O)cc4s3)CC2)n1 [2-{4-[2-(3,5-Dimethyl-pyrazol-1-yl)-acetyl]-piperazin-1-yl}-N-(6-methanesulfonyl-benzothiazol-2-yl)-benzamide]"
13,5.5,"Cc1cc(C)n(CC(=O)N2CCN(c3ccccc3C(=O)Nc3ccccc3F)CC2)n1 [2-{4-[2-(3,5-Dimethyl-pyrazol-1-yl)-acetyl]-piperazin-1-yl}-N-(2-fluoro-phenyl)-benzamide]"
14,5.1,"Cc1cc(C)n(CC(=O)N2CCN(c3ccccc3C(=O)Nc3cc(C(F)(F)F)no3)CC2)n1 [2-{4-[2-(3,5-Dimethyl-pyrazol-1-yl)-acetyl]-piperazin-1-yl}-N-(3-trifluoromethyl-isoxazol-5-yl)-benzamide]"
15,5.1,"Cc1cncc(NC(=O)c2ccccc2N2CCN(C(=O)Cn3nc(C)cc3C)CC2)c1 [2-{4-[2-(3,5-Dimethyl-pyrazol-1-yl)-acetyl]-piperazin-1-yl}-N-(5-methyl-pyridin-3-yl)-benzamide]"
16,5,"Cc1cc(C)n(CC(=O)N2CCN(c3ccccc3C(=O)Nc3cnc(C(F)(F)F)nc3)CC2)n1 [2-{4-[2-(3,5-Dimethyl-pyrazol-1-yl)-acetyl]-piperazin-1-yl}-N-(2-trifluoromethyl-pyrimidin-5-yl)-benzamide]"
17,4.3,"COc1cccc(NC(=O)c2ccccc2N2CCN(C(=O)Cn3nc(C)cc3C)CC2)c1 [2-{4-[2-(3,5-Dimethyl-pyrazol-1-yl)-acetyl]-piperazin-1-yl}-N-(3-methoxy-phenyl)-benzamide]"
18,4.2,"Cc1cc(C)n(CC(=O)N2CCN(c3ccccc3C(=O)Nc3ccc(C(F)(F)F)cc3)CC2)n1 [2-{4-[2-(3,5-Dimethyl-pyrazol-1-yl)-acetyl]-piperazin-1-yl}-N-(4-trifluoromethyl-phenyl)-benzamide]"
19,3.1,"Cc1cc(C)n(CC(=O)N2CCN(c3ccccc3C(=O)Nc3cccc(OC(F)(F)F)c3)CC2)n1 [2-{4-[2-(3,5-Dimethyl-pyrazol-1-yl)-acetyl]-piperazin-1-yl}-N-(3-trifluoromethoxy-phenyl)-benzamide]"
